Results reported in US9221763B2, “Process for preparing biphenyl imidazole compounds” (Theravance Biopharma R&D IP, LLC, priority 2009, dated 2015).

Assays:
[1] = Differential scanning calorimetry (DSC) thermal analysis; type: physicochemical; settings: crystalline solid; linear heating ramp of 10° C./min from 22° C. to 250° C.
Procedure: Differential scanning calorimetry (DSC) was performed using a TA Instruments Model Q-100 module with a Thermal Analyst controller. Data were collected and analyzed using TA Instruments Thermal Solutions software. A 2.05 mg sample of the crystalline compound of Example 1 was accurately weighed into a covered aluminum pan. After a 5 minute isothermal equilibration period at 22° C., the sample was heated using a linear heating ramp of 10° C./min from 22° C. to 250° C.
A 1.12 mg sample of the crystalline compound of Example 2 was similarly evaluated.

[2] = Thermogravimetric analysis (TGA); type: physicochemical; settings: crystalline solid; from room temperature to 150.0° C.

| Compound | thermal stability: no thermal decomposition below (DSC thermograph) [1] [°C] | loss of weight (residual moisture or solvent), TGA trace [2] [%] |
| --- | --- | --- |
| CCOc1nc(CC)c(CN)n1Cc1ccc(-c2ccccc2C(=O)OC(C)(C)C)cc1F [Example 1, 4′-(5-aminomethyl-2-ethoxy-4-ethylimidazol-1-ylmethyl)-3′-fluorobiphenyl-2-carboxylic acid t-butyl ester] | ≥ 150.0 | < 0.5 |
| CCOc1nc(CC)c(CNC(=O)[C@H](CC(C)C)SC(C)=O)n1Cc1ccc(-c2ccccc2C(=O)O)cc1F [Example 2, 4′-{5-[((S)-2-acetylsulfanyl-4-methylpentanoylamino)methyl]-2-ethoxy-4-ethylimidazol-1-ylmethyl}-3′-fluorobiphenyl-2-carboxylic acid] | ≥ 150.0 |  |
